Molecular target: Tyrosine-protein kinase HCK (Homo sapiens) (UniProt P08631)
Assay: inhibitors of human HCK tyrosine kinase activity – biochemical, Z'-LYTE, FRET readout, direct format, dose response (AID 1671291)
Settings: Z'-LYTE FRET peptide phosphorylation, recombinant HCK

Tyrosine-protein kinase HCK (Homo sapiens), sequence (P08631 whole entry, looked up): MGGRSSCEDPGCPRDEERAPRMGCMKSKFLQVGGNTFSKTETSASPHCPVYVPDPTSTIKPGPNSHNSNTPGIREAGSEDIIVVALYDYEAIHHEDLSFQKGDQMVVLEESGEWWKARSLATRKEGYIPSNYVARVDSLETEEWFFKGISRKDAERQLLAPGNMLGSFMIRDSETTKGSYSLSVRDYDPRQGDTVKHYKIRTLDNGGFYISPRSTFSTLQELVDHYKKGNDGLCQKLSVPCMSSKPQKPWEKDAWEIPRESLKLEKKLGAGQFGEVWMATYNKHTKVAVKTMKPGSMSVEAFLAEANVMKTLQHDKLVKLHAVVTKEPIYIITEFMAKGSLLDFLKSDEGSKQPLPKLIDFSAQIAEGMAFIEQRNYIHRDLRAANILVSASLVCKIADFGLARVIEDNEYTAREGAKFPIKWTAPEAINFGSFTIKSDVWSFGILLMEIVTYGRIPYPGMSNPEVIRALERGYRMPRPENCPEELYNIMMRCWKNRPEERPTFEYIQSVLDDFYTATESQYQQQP

COc1cc2ncnc(Nc3cccc(Cl)c3)c2cc1OC
IC50: 943 nM

Source: PubChem BioAssay AID1671291
